{"source": "PubChem BioAssay AID1259411", "about": "(Chemical Carcinogenesis Research Information System (CCRIS), 2018)", "test_system": "rodent carcinogenicity bioassays, tumor incidence", "assay": "CCRIS carcinogenicity studies", "method_in_brief": "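NCI-built, expert-reviewed records of carcinogenicity and related test outcomes (mutagenicity, tumor promotion/inhibition) compiled from published and report sources, historical span 1985-2011, not updated.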", "note": "Active and inactive are the calls of the source. How the calls were made is not given here."}
{"molecule": "O=P(OC(CCl)CCl)(OC(CCl)CCl)OC(CCl)CCl", "values": [{"measurement": "carcinogen call", "setting": "Species: RAT, Strain/Sex: SPRAGUE-DAWLEY CD/FEMALE, Route: ORAL, Dose: 0, 5, 20, 80 MG/KG/D IN FEED FOR 2 YR (STUDY DURATION: 2 YR), Dose: 0, 5, 20, 80 MG/KG/D IN FEED FOR 2 YR (STUDY DURATION: 2 YR), Tumor Site: Type of Lesion: ADRENAL GLAND: CORTICAL ADENOMA, KIDNEY: CORTICAL ADENOMA, LIVER: HEPATOCELLULAR ADENOMA, Tumor Site: Type of Lesion: ADRENAL GLAND: CORTICAL ADENOMA, KIDNEY: CORTICAL ADENOMA, LIVER: HEPATOCELLULAR ADENOMA", "value": "active; positive"}, {"measurement": "carcinogen call", "setting": "Species: RAT, Strain/Sex: SPRAGUE-DAWLEY CD/MALE, Route: ORAL, Dose: 0, 5, 20, 80 MG/KG/D IN FEED FOR 2 YR (STUDY DURATION: 2 YR), Dose: 0, 5, 20, 80 MG/KG/D IN FEED FOR 2 YR (STUDY DURATION: 2 YR), Tumor Site: Type of Lesion: KIDNEY: RENAL CORTICAL ADENOMA, LIVER: HEPATOCELLULAR ADENOMA, TESTES: INTERSTITIAL CELL TUMOR, Tumor Site: Type of Lesion: KIDNEY: RENAL CORTICAL ADENOMA, LIVER: HEPATOCELLULAR ADENOMA, TESTES: INTERSTITIAL CELL TUMOR", "value": "active; positive"}]}
{"molecule": "CCOP(=S)(OCC)SCCSCC", "values": [{"measurement": "carcinogen call", "setting": "Species: Mouse, Strain/Sex: CD/Female (60/Group with 10 used as replacements), Route: Oral, Dose: 0, 1, 4, 16 ppm 98.2% disulfoton in diet for 99 wks, study duration 99 wks, Dose: 0, 1, 4, 16 ppm 98.2% disulfoton in diet for 99 wks, study duration 99 wks", "value": "inactive; negative"}, {"measurement": "carcinogen call", "setting": "Species: Mouse, Strain/Sex: CD/Male (60/Group with 10 used as replacements), Route: Oral, Dose: 0, 1, 4, 16 ppm 98.2% disulfoton in diet for 99 wks, study duration 99 wks, Dose: 0, 1, 4, 16 ppm 98.2% disulfoton in diet for 99 wks, study duration 99 wks", "value": "inactive; negative"}, {"measurement": "carcinogen call", "setting": "Species: Rat, Strain/Sex: F344/Female (50/Group), Route: Oral, Dose: 0, 1, 4, 16 ppm 97.6% disulfoton in diet for 105 wks, study duration 105 wks, Dose: 0, 1, 4, 16 ppm 97.6% disulfoton in diet for 105 wks, study duration 105 wks", "value": "inactive; negative"}, {"measurement": "carcinogen call", "setting": "Species: Rat, Strain/Sex: F344/Male (50/Group), Route: Oral, Dose: 0, 1, 4, 16 ppm 97.6% disulfoton in diet for 105 wks, study duration 105 wks, Dose: 0, 1, 4, 16 ppm 97.6% disulfoton in diet for 105 wks, study duration 105 wks", "value": "inactive; negative"}]}
{"molecule": "Cc1noc(NS(=O)(=O)c2ccc(N)cc2)c1C", "values": [{"measurement": "carcinogen call", "setting": "Species: MOUSE, Strain/Sex: B6C3F1/FEMALE, Route: GAVAGE, Dose: 0, 500, 2000 MG/KG IN 0.5% AQ CMC, Dose: 0, 500, 2000 MG/KG IN 0.5% AQ CMC", "value": "inactive; negative"}, {"measurement": "carcinogen call", "setting": "Species: MOUSE, Strain/Sex: B6C3F1/MALE, Route: GAVAGE, Dose: 0, 500, 2000 MG/KG IN 0.5% AQ CMC, Dose: 0, 500, 2000 MG/KG IN 0.5% AQ CMC", "value": "inactive; negative"}, {"measurement": "carcinogen call", "setting": "Species: RAT, Strain/Sex: F344/FEMALE, Route: GAVAGE, Dose: 0, 100, 400 MG/KG IN 0.5% AQ CMC, Dose: 0, 100, 400 MG/KG IN 0.5% AQ CMC", "value": "inactive; negative"}, {"measurement": "carcinogen call", "setting": "Species: RAT, Strain/Sex: F344/MALE, Route: GAVAGE, Dose: 0, 100, 400 MG/KG IN 0.5% AQ CMC, Dose: 0, 100, 400 MG/KG IN 0.5% AQ CMC", "value": "inactive; negative"}]}
{"molecule": "c1ccc2c(c1)ccc1[nH]c3ccc4ccccc4c3c12", "values": [{"measurement": "carcinogen call", "setting": "Species: HAMSTER, Route: INTRATRACHEAL, Tumor Site: Type of Lesion: LUNG", "value": "active; positive"}, {"measurement": "carcinogen call", "setting": "Species: MOUSE, Route: DERMAL, Tumor Site: Type of Lesion: INTEGUMENTARY SYSTEM (SKIN), LIVER", "value": "active; positive"}, {"measurement": "carcinogen call", "setting": "Species: MOUSE, Route: INTRAVENOUS, Tumor Site: Type of Lesion: LUNG", "value": "active; positive"}, {"measurement": "carcinogen call", "setting": "Species: MOUSE, Route: ORAL, Tumor Site: Type of Lesion: FORESTOMACH, LIVER, LUNG, Tumor Site: Type of Lesion: FORESTOMACH, LIVER, LUNG", "value": "active; positive"}, {"measurement": "carcinogen call", "setting": "Species: MOUSE, Route: SUBCUTANEOUS, Tumor Site: Type of Lesion: INJECTION SITE, LUNG", "value": "active; positive"}, {"measurement": "carcinogen call", "setting": "Species: MOUSE, Strain/Sex: HSD:ICR(BR)/FEMALE, Route: DERMAL, Dose: 0, 50 NMOL IN 50 µL ACETONE 2/WK FOR 99 WK (STUDY DURATION: 99 WK), Tumor Site: Type of Lesion: SKIN: TUMOR, LIVER: TUMOR", "value": "active; positive"}, {"measurement": "carcinogen call", "setting": "Species: MOUSE, Strain/Sex: STRAIN-A/MALE, Route: INTRAPERITONEAL, Dose: 0, 5, 10, 20, 40 MG/KG BW IN 0.2 ML TRICAPRYLIN ONCE (STUDY DURATION: 8 MO), Dose: 0, 5, 10, 20, 40 MG/KG BW IN 0.2 ML TRICAPRYLIN ONCE (STUDY DURATION: 8 MO), Tumor Site: Type of Lesion: LUNG: ADENOMA", "value": "active; positive"}, {"measurement": "carcinogen call", "setting": "Species: Mouse, Strain/Sex: XVIInc/Z homozygous/Female (50 or 162/Group), Route: Subcutaneous, Dose: 3 x 0.3 mg (162 animals) or 34 x 0.05 mg (50 animals) dissolved in olive oil, Tumor Site: Type of Lesion: Liver: Hepatoma (100%), Sarcoma (70%)", "value": "active; positive (historical controls only; reported incidence of liver tumors <2% at 2"}]}
{"molecule": "O=Nc1cc2c3ccccc3ccc2c2ccccc12", "values": [{"measurement": "carcinogen call", "setting": "Species: MOUSE, Strain/Sex: SWISS/FEMALE, Route: INTRAPERITONEAL, Dose: 0, 100 NMOL (TOTAL DOSE) 1/7, 2/7 AND 4/7 ADMINISTERED ON DAYS 1, 8 AND 15 OF LIFE RESPECTIVELY (STUDY DURATION: 32 WK), Tumor Site: Type of Lesion: LUNG: TUMOR", "value": "active; positive"}, {"measurement": "carcinogen call", "setting": "Species: MOUSE, Strain/Sex: SWISS/MALE, Route: INTRAPERITONEAL, Dose: 0, 100 NMOL (TOTAL DOSE) 1/7, 2/7 AND 4/7 ADMINISTERED ON DAYS 1, 8 AND 15 OF LIFE RESPECTIVELY (STUDY DURATION: 32 WK), Tumor Site: Type of Lesion: LUNG: TUMOR, LIVER: TUMOR", "value": "active; positive"}]}
{"molecule": "CCOC(=O)NO", "values": [{"measurement": "carcinogen call", "setting": "Species: MOUSE, Strain/Sex: C57BL, Route: INTRAPERITONEAL, Dose: 1.18 MG/G 10X AT WEEKLY INTERVALS, Tumor Site: Type of Lesion: THYMUS GLAND: LYMPHOSARCOMA, LUNG: ADENOMA", "value": "active; positive"}, {"measurement": "carcinogen call", "setting": "Species: MOUSE, Strain/Sex: STRAIN-A/FEMALE, Route: INTRAPERITONEAL, Dose: 4000 NMOL/G, Tumor Site: Type of Lesion: LUNG: ADENOMA", "value": "active; positive"}]}
{"molecule": "CCOC(OCC)C(=O)c1ccccc1", "values": [{"measurement": "carcinogen call", "setting": "Species: MOUSE, Strain/Sex: C3H/HEJ/MALE, Route: DERMAL, Dose: 0, 11.3 MG AS A 50% DILUTION IN ACETONE 3/WK FOR LIFESPAN (STUDY DURATION: LIFESPAN)", "value": "inactive; negative"}, {"measurement": "carcinogen call", "setting": "Species: MOUSE, Strain/Sex: C3H/HEJ/MALE, Route: DERMAL, Dose: 0, 25 MG UNDILUTED 3/WK FOR LIFESPAN (STUDY DURATION: LIFESPAN)", "value": "inactive; negative"}]}
{"molecule": "O=[N+]([O-])c1cccc2ccccc12", "values": [{"measurement": "carcinogen call", "setting": "Species: MOUSE, Strain/Sex: B6C3F1/FEMALE, Route: ORAL, Dose: 0, 0.06, 0.12% OF DIET, Dose: 0, 0.06, 0.12% OF DIET", "value": "inactive; negative"}, {"measurement": "carcinogen call", "setting": "Species: MOUSE, Strain/Sex: B6C3F1/MALE, Route: ORAL, Dose: 0, 0.06, 0.12% OF DIET, Dose: 0, 0.06, 0.12% OF DIET", "value": "inactive; negative"}, {"measurement": "carcinogen call", "setting": "Species: RAT, Strain/Sex: F344/FEMALE, Route: ORAL, Dose: 0, 0.06, 0.18% OF DIET, Dose: 0, 0.06, 0.18% OF DIET", "value": "inactive; negative"}, {"measurement": "carcinogen call", "setting": "Species: RAT, Strain/Sex: F344/MALE, Route: ORAL, Dose: 0, 0.06, 0.18% OF DIET, Dose: 0, 0.06, 0.18% OF DIET", "value": "inactive; negative"}]}
